{"source": "patent US8614170B2", "about": "“Method for treating fracturing water” (Schlumberger Technology Corporation, priority 2008, dated 2013)", "key": {"[1]": {"system": "planktonic sulfate reducing bacteria", "experiment": "Efficacy of metabolic inhibitor for planktonic sulfate reducing bacteria (NACE standard TMO194-94 test method)", "assay_type": "cell-based", "settings": "planktonic SRB, field mix water samples at 85 deg F. (29.4 deg C.), FIG. 1", "protocol": "(§1) Efficacy of metabolic inhibitor for sulfate reducing bacteria was tested. NACE standard TMO194-94 test method was employed for testing the presence of general heterotrophic bacteria (GHB), acid producing bacteria (APB), and sulphate reducing bacteria (SRB) in field mix water samples at 85 deg F. (29.4 deg C.) containing different metabolic inhibitors and microbiocides: 100 ppm active or 200 ppm of calcium nitration solution and 125 ppm active glut or 500 ppm glut solution were used. In a first example, shown in FIG. 1, efficacy of metabolic inhibitor for planktonic sulfate reducing bacteria is tested. In a second example, shown in FIG. 2, efficacy of metabolic inhibitor for sessile sulfate reducing bacteria is tested."}, "[2]": {"system": "sessile sulfate reducing bacteria", "experiment": "Efficacy of metabolic inhibitor for sessile sulfate reducing bacteria (NACE standard TMO194-94 test method)", "assay_type": "cell-based, sulfate reducing bacteria (SRB)", "protocol": "as §1"}}}
{"substance": "calcium nitration solution [metabolic inhibitor]", "values": [{"measurement": "efficacy against sulfate reducing bacteria", "setting": "[1]", "result": "kill and/or inhibit the growth"}, {"measurement": "impact on sessile versus planktonic population", "setting": "[2]; maximum effect after 28 days", "result": "greater impact on the sessile bacteria population than the planktonic population"}, {"measurement": "efficacy against sulfate reducing bacteria", "setting": "[2]; sessile SRB, field mix water samples at 85 deg F. (29.4 deg C.), FIG. 2", "result": "kill and/or inhibit the growth"}]}
